Nine molecules from ChEMBL document CHEMBL1201862, “PubChem BioAssay data set” (2004) can be followed below.

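Where inhibition never reached the appropriate level, the endpoint shown equals the highest concentration tested. Otherwise, values were interpolated linearly from a five-concentration, 48-hour dose response in 96-well plates. The concentration for 50% growth inhibition is given as GI50.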 Calls of active or inactive are those of the source. No stated cut-off is given here; in the data, active = GI50 up to about 1.1 µM and inactive = higher.

Common to all, as to assay: NCI tumour cell line growth inhibition, 48 h
The subject of assay [1] is A549.
Assay [2] deals with SK-OV-3.
The test system of assay [3] is SF-295.
The test system of assay [4] is HT-29.
In assay [5] the test system is SK-MEL-2.
Assay [6] has as its system EKVX.
Assay [7] has as its system RXF 393.
Assay [8] has as its system IGROV-1.
Assay [9] relates to SN12C.
For assay [10], the system named is CAKI-1.
Assay [11] has as its system SK-MEL-28.
Assay [12] has as its system HL-60.
The test system of assay [13] is HCT-15.
Assay [14] has as its system HCT-116.
Assay [15] relates to COLO 205.
The subject of assay [16] is SF-539.
Assay [17] relates to 786-0.
In assay [18] the test system is OVCAR-4.

As for `Cc1nc(-n2nc(-c3ccccc3)cc2-c2ccccc2)sc1C(/C=C/c1ccc([N+](=O)[O-])cc1)=N/NC(N)=S`, the GI50 in [1] is 97.3 µM (inactive); in assay [2], 73.5 µM (inactive); in [3], 45.8 µM (inactive); in [4], 23.7 µM (inactive); in assay [5] it was 33.9 µM (inactive); in assay [6] it was > 100 µM (inactive). Also, the GI50 in assay [7] is 54.1 µM (inactive); in assay [8] it was 35.2 µM (inactive); in [9] it was > 100 µM (inactive); in [10], 60.3 µM (inactive); in assay [11], 91.8 µM (inactive); in assay [12] it was 4.13 µM (inactive). Besides, the GI50 in assay [13] is 28.4 µM; in [14] it was 15.8 µM (inactive); in [15] it was 33.2 µM (inactive); in [16], 28 µM (inactive); in assay [17] it was 18.2 µM (inactive).
Take `Nc1ccccc1/C(O)=C1/CCOC1=O`: the GI50 in assay [18], in [1], in assay [2], in [3], in assay [4] and in assay [5] was > 100 µM (inactive) in each case. Besides, the GI50 in assay [6], in assay [8], in [9], in assay [10], in assay [11] and in assay [12] was > 100 µM (inactive) each time. Besides, the GI50 in assay [14], in assay [15] and in assay [17] was > 100 µM (inactive) throughout.
For the molecule `CCC(C)CN1C(=O)NC(C)(Cc2ccccc2)C1=O` (stereo not drawn), the GI50 in assay [1], in assay [3], in assay [4], in [5], in assay [6] and in assay [7] was > 100 µM (inactive) throughout. Also, the GI50 in assay [9], in assay [10], in [11], in assay [12], in [15] and in [16] was > 100 µM (inactive) in each case. The GI50 in [17] was > 100 µM (inactive).
`CC1=NN(C(=O)c2ccc([N+](=O)[O-])cc2)C(=O)C1/N=N/c1ccccc1C(=O)O` (stereo not drawn): the GI50 in [1] was > 100 µM (inactive); in [2] it was 53.6 µM (inactive); in assay [3], > 100 µM (inactive); in assay [4] it was > 100 µM (inactive); in [5], > 100 µM (inactive); in [6], > 100 µM (inactive). Besides, the GI50 was > 100 µM (inactive) in assay [7]; > 100 µM (inactive) in assay [8]; > 100 µM (inactive) in assay [9]; > 100 µM (inactive) in [10]; > 100 µM (inactive) in assay [11]; 90.2 µM (inactive) in [12]. Also, the GI50 in assay [14], in assay [15], in assay [16] and in assay [17] was > 100 µM (inactive) each time.
`C/C=C1/CCC2c3[nH]c4ccccc4c3CCN2C1` (stereo not drawn): the GI50 in [18] was 42 µM (inactive); in assay [1], > 100 µM (inactive); in assay [2], > 100 µM (inactive); in [3] it was > 100 µM (inactive); in assay [4], 45.7 µM (inactive); in assay [5], > 100 µM (inactive). Besides, the GI50 in [6] is > 100 µM (inactive); in assay [7], > 100 µM (inactive); in assay [8] it was > 100 µM (inactive); in assay [9], > 100 µM (inactive); in assay [10], 37.2 µM (inactive); in [11] it was > 100 µM (inactive). Further, the GI50 was 58.2 µM (inactive) in assay [12], 66.5 µM (inactive) in assay [14], > 100 µM (inactive) in assay [16] and > 100 µM (inactive) in assay [17].
For the molecule `N=C(c1ccccc1)N(O)C1CCCCC1`, the GI50 in [18], in assay [1], in assay [3], in [4], in assay [5] and in assay [6] was > 100 µM (inactive) each time. In addition, the GI50 in assay [7], in assay [9], in assay [10], in assay [11], in assay [12] and in assay [14] was > 100 µM (inactive) each time. For the same molecule, the GI50 in assay [15], in assay [16] and in assay [17] was > 100 µM (inactive) throughout.
Turning to `CN(/N=C\c1ccnc2ccccc12)c1ccc([N+](=O)[O-])cc1`, the GI50 in [1] is > 100 µM (inactive); in assay [2] it was > 100 µM (inactive); in assay [3], 75.2 µM (inactive); in [4] it was > 100 µM (inactive); in assay [5] it was > 100 µM (inactive); in assay [6], > 100 µM (inactive). The GI50 in assay [7] is > 10 µM (inactive); in assay [8], > 100 µM (inactive); in [9], > 100 µM (inactive); in [10] it was > 100 µM (inactive); in assay [11], > 100 µM (inactive); in [12], 37.1 µM (inactive). For the same molecule, the GI50 is above 100 µM in assay [13]; 11.6 µM (inactive) in assay [14]; > 100 µM (inactive) in assay [15]; 27 µM (inactive) in assay [16]; > 100 µM (inactive) in [17].
Regarding `O=[N+]([O-])c1nccn1COCCO`, the GI50 in assay [18], in [1], in assay [2], in assay [3], in assay [4] and in assay [5] was > 100 µM (inactive) each time. Besides, the GI50 in assay [7] is > 100 µM (inactive); in assay [9], > 100 µM (inactive); in assay [10], > 100 µM (inactive); in [11] it was > 100 µM (inactive); in assay [12], > 100 µM (inactive); in [13], above 100 µM. Moreover, the GI50 in assay [14], in assay [15] and in [17] was > 100 µM (inactive) in each case.
Regarding `Cc1cccc(C(C)(C)C)c1NC(=O)CC1C(=O)Nc2ccccc2[S+]1[O-]` (stereo not drawn), the GI50 in assay [18] is 18.5 µM (inactive); in [1], 37 µM (inactive); in assay [3], 62.8 µM (inactive); in [4], 65 µM (inactive); in assay [5], 49.3 µM (inactive); in assay [9], 55.8 µM (inactive). For the same molecule, the GI50 was 39.3 µM (inactive) in assay [10]; 41.5 µM (inactive) in assay [11]; 20.9 µM (inactive) in [12]; 49.2 µM in assay [13]; 40.6 µM (inactive) in assay [14]; 21.1 µM (inactive) in assay [15]. Besides, the GI50 was 75.7 µM (inactive) in assay [16] and > 100 µM (inactive) in [17].
